Tests used:
Assay type in all cases: in vivo
[1] = test system: corn (Zea mays); assay: Test G Pre-Emergence Protocol; settings: Zea mays, pre-emergence, 312 h, evaluated after 13 days
In short: (§1)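 Scores are visual damage ratings from 0 (no damage) to 100 (total plant kill), taken 13 days after treatment. Compound was sprayed one day post-sowing at 15.625, 62.5 or 250 g/ha in 50:50 acetone/water with 0.5% Tween 20.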

[2] = test system: redroot pigweed (Amaranthus retroflexus); assay: Test G Pre-Emergence Protocol; settings: Amaranthus retroflexus, pre-emergence, 312 h, evaluated after 13 days
In short: as §1

[3] = test system: ivy-leaved morning glory (Ipomoea hederacea); assay: Test G Pre-Emergence Protocol; settings: Ipomoea, pre-emergence, 312 h, evaluated after 13 days
In short: as §1

[4] = test system: giant foxtail (Setaria faberi); assay: Test G Pre-Emergence Protocol; settings: Setaria faberi, pre-emergence, 312 h, evaluated after 13 days
In short: as §1

[5] = test system: barnyardgrass (Echinochloa crus-galli); assay: Test G Pre-Emergence Protocol; settings: Echinochloa crus-galli, pre-emergence, 312 h, evaluated after 13 days
In short: as §1

[6] = test system: velvetleaf (Abutilon theophrasti); assay: Test G Pre-Emergence Protocol; settings: Abutilon theophrasti, pre-emergence, 312 h, evaluated after 13 days
In short: as §1

[7] = test system: corn (Zea mays); assay: Test G Post-Emergence Protocol; settings: Zea mays, post-emergence, 312 h, read-out: Corn damage rating
In short: (§2)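 Sow in soil; grow 8 d (24/16 °C, 14 h light, 65% humidity); spray 15.625/62.5/250 g/ha in acetone:water 50:50 + 0.5% Tween 20; grow on, water twice daily; score damage 0–100 at 13 d.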

[8] = test system: redroot pigweed (Amaranthus retroflexus); assay: Test G Post-Emergence Protocol; settings: Amaranthus retroflexus, post-emergence, 312 h, read-out: Pigweed, Redroot damage rating
In short: as §2

[9] = test system: ivy-leaved morning glory (Ipomoea hederacea); assay: Test G Post-Emergence Protocol; settings: Ipomoea, post-emergence, 312 h, read-out: Morningglory, Ivy-leaved damage rating
In short: as §2

[10] = test system: giant foxtail (Setaria faberi); assay: Test G Post-Emergence Protocol; settings: Setaria faberi, post-emergence, 312 h, read-out: Foxtail, Giant damage rating
In short: as §2

[11] = test system: barnyardgrass (Echinochloa crus-galli); assay: Test G Post-Emergence Protocol; settings: Echinochloa crus-galli, post-emergence, 312 h, read-out: Barnyardgrass damage rating
In short: as §2

[12] = test system: velvetleaf (Abutilon theophrasti); assay: Test G Post-Emergence Protocol; settings: Abutilon theophrasti, post-emergence, 312 h, read-out: Velvetleaf damage rating
In short: as §2

[13] = 15.625 g ai/ha, evaluated after 13 days (100=total damage to plant; 0=no damage to plant)
[14] = 62.5 g ai/ha, evaluated after 13 days, 100=total damage to plant, 0=no damage to plant
[15] = 250 g ai/ha, evaluated after 13 days, 100=total damage to plant, 0=no damage to plant

`CN1C[C@@H](c2ccc(C(F)(F)F)cc2)[C@H](C(=O)Nc2n[nH]cc2Cl)C1=O` (racemic) [Compound 1658] showed a plant injury at 15.625 g/ha ([1]; 15.625 g ai/ha, read-out: Corn damage rating (100=total damage to plant; 0=no damage to plant)) of 0%, a plant injury at 62.5 g/ha ([1]; 62.5 g ai/ha, 100=total damage to plant, 0=no damage to plant, read-out: Corn damage rating) of 0% and a plant injury at 250 g/ha ([1]; 250 g ai/ha, read-out: Corn damage rating (100=total damage to plant; 0=no damage to plant)) of 0%. For the same compound, the pest or weed control at 15.625 g/ha ([2]; 15.625 g ai/ha, read-out: Pigweed, Redroot damage rating (100=total damage to plant; 0=no damage to plant)) was 0%, the pest or weed control at 62.5 g/ha ([2]; 62.5 g ai/ha, 100=total damage to plant, 0=no damage to plant, read-out: Pigweed, Redroot damage rating) was 0% and the pest or weed control at 250 g/ha ([2]; 250 g ai/ha, read-out: Pigweed, Redroot damage rating (100=total damage to plant; 0=no damage to plant)) was 0%. It also gave a pest or weed control at 15.625 g/ha ([3]; 15.625 g ai/ha, read-out: Morningglory, Ivy-leaved damage rating (100=total damage to plant; 0=no damage to plant)) of 0%, a pest or weed control at 62.5 g/ha ([3]; 62.5 g ai/ha, 100=total damage to plant, 0=no damage to plant, read-out: Morningglory, Ivy-leaved damage rating) of 0% and a pest or weed control at 250 g/ha ([3]; 250 g ai/ha, read-out: Morningglory, Ivy-leaved damage rating (100=total damage to plant; 0=no damage to plant)) of 0%. The pest or weed control at 15.625 g/ha ([4]; 15.625 g ai/ha, read-out: Foxtail, Giant damage rating (100=total damage to plant; 0=no damage to plant)) was 0%, the pest or weed control at 62.5 g/ha ([4]; 62.5 g ai/ha, 100=total damage to plant, 0=no damage to plant, read-out: Foxtail, Giant damage rating) was 0% and the pest or weed control at 250 g/ha ([4]; 250 g ai/ha, read-out: Foxtail, Giant damage rating (100=total damage to plant; 0=no damage to plant)) was 0%. The pest or weed control at 15.625 g/ha ([5]; 15.625 g ai/ha, read-out: Barnyardgrass damage rating (100=total damage to plant; 0=no damage to plant)) was 0%, the pest or weed control at 62.5 g/ha ([5]; 62.5 g ai/ha, 100=total damage to plant, 0=no damage to plant, read-out: Barnyardgrass damage rating) was 0% and the pest or weed control at 250 g/ha ([5]; 250 g ai/ha, read-out: Barnyardgrass damage rating (100=total damage to plant; 0=no damage to plant)) was 0%. It also gave a pest or weed control at 15.625 g/ha ([6]; 15.625 g ai/ha, read-out: Velvetleaf damage rating (100=total damage to plant; 0=no damage to plant)) of 0%, a pest or weed control at 62.5 g/ha ([6]; 62.5 g ai/ha, 100=total damage to plant, 0=no damage to plant, read-out: Velvetleaf damage rating) of 0% and a pest or weed control at 250 g/ha ([6]; 250 g ai/ha, read-out: Velvetleaf damage rating (100=total damage to plant; 0=no damage to plant)) of 0%. The plant injury at 15.625 g/ha [7, 13] was 0%, the plant injury at 62.5 g/ha [7, 14] was 0% and the plant injury at 250 g/ha [7, 15] was 10%. For the same compound, the pest or weed control at 15.625 g/ha [8, 13] was 0%, the pest or weed control at 62.5 g/ha [8, 14] was 10% and the pest or weed control at 250 g/ha [8, 15] was 40%. The pest or weed control at 15.625 g/ha [9, 13] was 0%, the pest or weed control at 62.5 g/ha [9, 14] was 0% and the pest or weed control at 250 g/ha [9, 15] was 20%. It also gave a pest or weed control at 15.625 g/ha [10, 13] of 0%, a pest or weed control at 62.5 g/ha [10, 14] of 0% and a pest or weed control at 250 g/ha [10, 15] of 20%. It also gave a pest or weed control at 15.625 g/ha [11, 13] of 0%, a pest or weed control at 62.5 g/ha [11, 14] of 0% and a pest or weed control at 250 g/ha [11, 15] of 20%. For the same compound, the pest or weed control at 15.625 g/ha [12, 13] was 0%, the pest or weed control at 62.5 g/ha [12, 14] was 0% and the pest or weed control at 250 g/ha [12, 15] was 10%.

Source: patent publication US12077503B2, “Substituted cyclic amides and their use as herbicides” (FMC CORPORATION, priority 2015, dated 2024)
